Data set [1] concerns the target T1, Toll-like receptor 7 (Homo sapiens) (UniProt Q9NYK1).
T1 sequence (whole entry): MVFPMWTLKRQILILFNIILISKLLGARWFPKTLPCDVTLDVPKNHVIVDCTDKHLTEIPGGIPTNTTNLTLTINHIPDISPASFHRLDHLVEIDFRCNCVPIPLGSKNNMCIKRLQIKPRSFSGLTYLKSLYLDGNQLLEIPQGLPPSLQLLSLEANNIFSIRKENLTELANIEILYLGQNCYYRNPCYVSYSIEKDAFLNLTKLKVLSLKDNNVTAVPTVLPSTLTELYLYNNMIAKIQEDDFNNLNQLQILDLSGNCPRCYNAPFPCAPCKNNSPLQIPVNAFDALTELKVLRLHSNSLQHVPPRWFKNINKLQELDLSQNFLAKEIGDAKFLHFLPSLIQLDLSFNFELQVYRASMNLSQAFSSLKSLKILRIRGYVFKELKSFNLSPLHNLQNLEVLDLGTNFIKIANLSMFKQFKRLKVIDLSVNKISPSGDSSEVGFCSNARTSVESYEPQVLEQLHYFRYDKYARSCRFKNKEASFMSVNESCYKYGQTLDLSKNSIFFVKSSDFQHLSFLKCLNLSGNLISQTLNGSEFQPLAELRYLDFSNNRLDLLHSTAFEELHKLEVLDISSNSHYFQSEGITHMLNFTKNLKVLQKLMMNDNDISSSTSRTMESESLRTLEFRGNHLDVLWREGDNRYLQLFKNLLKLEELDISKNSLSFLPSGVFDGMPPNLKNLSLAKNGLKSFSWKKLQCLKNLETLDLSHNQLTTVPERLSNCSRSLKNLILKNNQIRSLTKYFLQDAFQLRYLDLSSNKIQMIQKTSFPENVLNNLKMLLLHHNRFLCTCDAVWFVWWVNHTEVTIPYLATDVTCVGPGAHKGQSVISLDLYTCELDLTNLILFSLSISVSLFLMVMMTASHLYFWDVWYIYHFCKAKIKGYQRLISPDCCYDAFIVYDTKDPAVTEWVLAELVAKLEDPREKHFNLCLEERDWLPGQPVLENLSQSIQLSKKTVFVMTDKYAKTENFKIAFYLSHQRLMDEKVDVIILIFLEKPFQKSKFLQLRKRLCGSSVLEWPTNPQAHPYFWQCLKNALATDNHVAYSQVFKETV
The experiment in a line: Agonist activity at human TLR7 expressed in human PBMCs assessed as reduction in HCV replicon level after 48 hrs by Bright Glo luciferase reporter gene assay. The format is functional.

Data set [2] is described as follows: Intrinsic clearance in human liver microsomes. The format is ADME, Microsome. The note with it: read-out: CLH. On the technique in general: Liver microsomes are vesicles of endoplasmic reticulum, rich in cytochrome P450 enzymes.
The nature of data set [3]: Intrinsic clearance in human cytosol after 45 mins by LC/MS analysis. The format is ADME.
Data set [4] is described as follows: Intrinsic clearance in rat liver microsomes. The format is ADME, Microsome. The note with it: read-out: CLH.
Data set [5] can be described thus: Intrinsic clearance in rat cytosol after 45 mins by LC/MS analysis. The format is ADME.

For the molecule `Nc1nc(C(F)(F)F)cc2c1[nH]c(=O)n2Cc1ccc(N2CCOCC2)nc1`, the Activity in data set [1] worked out at 32 nM.
On the same count and under the same terms, the same measure for `CCc1coc(-c2cc3c([nH]c(=O)n3Cc3ccc(C)nc3)c(N)n2)n1`: 116 nM.
Consider `Cc1nc(Cn2c(=O)[nH]c3c(N)nc(C(F)(F)F)cc32)cs1`, for which the microsomal CLint was below 7 µL/min/mg in data set [2], below 1 µL/min/mg in data set [3], below 10 µL/min/mg in data set [4] and below 1 µL/min/mg in data set [5].
Consider `Nc1nc(C(F)(F)F)cc2c1[nH]c(=O)n2Cc1ccc(NCC2CC2)nc1`, for which the Activity in data set [1] was 122 nM.
The same measure, in the same setting: the same measure for `Nc1ccc(Cn2c(=O)[nH]c3c(N)nc(C(F)(F)F)cc32)cn1`: 43 nM.
Same read-out and setting: the same measure for `Nc1nc(C(F)(F)F)cc2c1[nH]c(=O)n2Cc1ccc(C(F)(F)F)nc1`: 75 nM.
For the molecule `Cc1nc(Cn2c(=O)[nH]c3c(N)nc(C(F)(F)F)cc32)co1`, the microsomal CLint in data set [2] was below 8 µL/min/mg; in data set [3], below 1 µL/min/mg; in data set [4] it was below 10 µL/min/mg; in data set [5], below 1 µL/min/mg.
For the molecule `COc1ccc(Cn2c(=O)[nH]c3c(N)nc(C(F)(F)F)cc32)cn1`, in data set [1], the Activity came out at 74 nM.
As for `Cc1cc(Cn2c(=O)[nH]c3c(N)nc(C(F)(F)F)cc32)no1`, the microsomal CLint in data set [2] is below 8 µL/min/mg; in data set [3], below 1 µL/min/mg; in data set [4], below 9 µL/min/mg; in data set [5] it was below 1 µL/min/mg.

Values taken from ChEMBL document CHEMBL2021836, “Medicinal chemistry approaches to avoid aldehyde oxidase metabolism” (Bioorg Med Chem Lett, 2012).
